“Also recorded” adds a separate entry of the source. Like-named read-outs stand apart in the source and are kept apart here. Each block holds one compound with its values, some of them ahead of it.
Experiments:
[1] = target: human recombinant thioredoxin (Homo sapiens (Human), UniProt P10599); assay: Thioredoxin activity, insulin reduction / DTNB assay with recombinant enzymes; type: biochemical; details: for thioredoxin activity inhibition in comparison to PX-12: in words; for IC50: 37° C., 30 min, 0.25 μM thioredoxin, 0.325 μM thioredoxin reductase, read-out: IC50 of thioredoxin inhibition
Procedure: The method of determining thioredoxin activity is based on the reduction of insulin by thioredoxin. Thioredoxin is reconstituted is by thioredoxin reductase, with NADPH. The resulting free thiol —SH groups react with 5,5′-dithiobis-2-nitrobenzoic acid (DTNB). The termination of the reaction results in the formation of a […] colour. The intensity of colouration is determined spectrophotometrically at 412 nm and this corresponds to the number of reduced sulfahydryl groups. The reaction was performed at 37° C. over 30 min. in a buffer containing 50 mM Tris-HCl and 20 mM EDTA at a pH of 7.6. The substrate concentrations used were: 0.25 μM human recombinant thioredoxin and 0.325 μM rat recombinant thioredoxin reductase (IMCO Corporation Ltd AB, Sweden) and 316 μM of insulin, 0.8 μM NADPH, 8 mM DTNB (Sigma Aldrich).

[2] = target: rat recombinant thioredoxin reductase (Rattus norvegicus (Rat), UniProt O89049); assay: Thioredoxin reductase activity, DTNB chromogenic assay (Thioredoxin Reductase Assay Kit); type: biochemical; details: for IC50: read-out: IC50 of thioredoxin reductase activity inhibition
Procedure: Reactions in which the activity of recombinant rat thioredoxin reductase was determined made use of a chromogenic reaction with 5,5′-dithiobis-2-nitrobenzoic acid.

glutathione reductase [3] = target: T1, glutathione reductase (Homo sapiens (Human), UniProt P00390); assay: Glutathione reductase activity, DTNB chromogenic assay (Glutathione Reductase Assay Kit); type: biochemical; details: for IC50: read-out: IC50 of glutathione reductase activity inhibition; for inhibition of glutathione reductase activity: even at a concentration of 100 μM
Procedure: The spatial structures of the active centres of glutathione reductase and the enzymes of the Trx-TrxR system show a high similarity. […] The reactions for determining the activity of recombinant human glutathione reductase made use of a chromogenic reaction with 5,5′-dithiobis-2-nitrobenzoic acid, like in the case of thioredoxin reductase. Activity was determined after 5 and 10 min incubation at room temperature.

[4] = system: EMT6 (murine breast cancer); assay: Cytostatic/cytotoxic activity, EMT6; type: cell-based; details: for LD50 of the evaluated compound: EMT6, after 72 h of incubation
Procedure: (§1) The cytostatic/cytotoxic activity was evaluated using the following lines of tumour cells: EMT6 (murine breast cancer), PANC02 (murine pancreatic cancer), B78 (murine melanoma), C-26 (murine colon cancer), K562 (human chronic myelogenic leukaemia), T24 (human bladder cancer), RAJI (human Burkitt's lymphoma), Ramos (human Burkitt's lymphoma). The cultures were maintained in the following media: DMEM (EMT6, PANC02, B78), RPMI (C-26, Raji, Ramos), IMDM (K562), McCoy's (T24) with an addition of 10% bovine serum (Invitrogen) and antibiotics (Sigma).
(§2) To determine cytostatic/cytotoxic activity of the evaluated compounds, cell cultures were initiated in 96-well plates. After 24 h, inhibitors were added at set concentrations. The results were determined using colorimetric methods following 72 hours of incubation.

[5] = system: PANC02 (murine pancreatic cancer); assay: Cytostatic/cytotoxic activity, PANC02; type: cell-based; details: PANC02, after 72 h of incubation
Procedure: as §1
as §2, with “incubation. To determine cytostatic/cytotoxic activity, crystal violet dyeing was used (reading at 595 nm) or MTT (Sigma; reading at 570 nm).” for “incubation.”

[6] = system: C-26 (murine colon cancer); assay: Cytostatic/cytotoxic activity, C-26; type: cell-based; details: C-26, after 72 h of incubation
Procedure: as §1
as §2, with “incubation. To determine cytostatic/cytotoxic activity, crystal violet dyeing was used (reading at 595 nm) or MTT (Sigma; reading at 570 nm).” for “incubation.”

B78 (murine melanoma) = assay: Cytostatic/cytotoxic activity, B78; type: cell-based; details: B78, after 72 h of incubation
Procedure: as §1
as §2, with “incubation. To determine cytostatic/cytotoxic activity, crystal violet dyeing was used (reading at 595 nm) or MTT (Sigma; reading at 570 nm).” for “incubation.”

[7] = system: RAJI (human Burkitt's lymphoma); assay: Cytostatic/cytotoxic activity, RAJI; type: cell-based; details: after 72 h of incubation
Procedure: as §1
as §2, with “incubation. To determine cytostatic/cytotoxic activity, crystal violet dyeing was used (reading at 595 nm) or MTT (Sigma; reading at 570 nm).” for “incubation.”

[8] = system: Ramos (human Burkitt's lymphoma); assay: Cytostatic/cytotoxic activity, Ramos; type: cell-based; details: after 72 h of incubation
Procedure: as §1
as §2, with “incubation. To determine cytostatic/cytotoxic activity, crystal violet dyeing was used (reading at 595 nm) or MTT (Sigma; reading at 570 nm).” for “incubation.”

[9] = system: K562 (human chronic myelogenic leukaemia); assay: Cytostatic/cytotoxic activity, K562; type: cell-based; details: K562, after 72 h of incubation
Procedure: as §1
as §2, with “incubation. To determine cytostatic/cytotoxic activity, crystal violet dyeing was used (reading at 595 nm) or MTT (Sigma; reading at 570 nm).” for “incubation.”

[10] = system: T24 (human bladder cancer); assay: Cytostatic/cytotoxic activity, T24; type: cell-based; details: T24, after 72 h of incubation
Procedure: as §1
as §2, with “incubation. To determine cytostatic/cytotoxic activity, crystal violet dyeing was used (reading at 595 nm) or MTT (Sigma; reading at 570 nm).” for “incubation.”

T24 cells = assay: Cell cycle analysis by flow cytometry (propidium iodide); type: cell-based, human; details: T24, 72 hours of incubation
Text: The cell cycle is composed of a series of events leading to cell division. In the cell cycle we differentiate the following phases: G1 (interval between divisions), S (duplication of genetic material) and G2/M (division or mitosis). An analysis of the cel cycle using a flow-through cytometer makes it possible to determine the percentage of cells in each of the phases. Furthermore, the percentage of cells in the so-called subG1 phase: those, whose genetic material has degraded as a result of apoptosis or necrosis.
The cells were stained with propidium iodide at […] and analysed with flow-through cytometry. The percentage of dividing cells duplicating their genetic material (S phase) is clearly lower after incubation with inhibitors of thioredoxin.

[11] = system: panel of human and murine lines of tumour cells; assay: Cytostatic/cytotoxic activity against panel of tumour cell lines (FIG. 1); type: cell-based; details: in words
Procedure: The cytostatic/cytotoxic activity against adherent cells, from solid tumours cells (EMT6, PAN02, CT26 and T24) was evaluated using the crystalline violet test, whereas against suspension-grown cells of the MTT line. b.d.=no data.
as §1
as §2, with “incubation. To determine cytostatic/cytotoxic activity, crystal violet dyeing was used (reading at 595 nm) or MTT (Sigma; reading at 570 nm).” for “incubation.”

thioredoxin reductase = thioredoxin reductase (Homo sapiens (Human), UniProt Q16881); details: literature (Gromer et al. 1998); cited from earlier work
glutathione reductase [12] = target: T1, glutathione reductase; details: literature (Gromer et al. 1998); cited from earlier work

human recombinant thioredoxin, sequence (P10599 whole entry): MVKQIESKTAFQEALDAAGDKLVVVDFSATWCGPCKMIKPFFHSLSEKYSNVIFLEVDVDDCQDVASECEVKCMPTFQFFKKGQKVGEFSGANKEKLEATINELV
rat recombinant thioredoxin reductase, sequence (O89049 whole entry): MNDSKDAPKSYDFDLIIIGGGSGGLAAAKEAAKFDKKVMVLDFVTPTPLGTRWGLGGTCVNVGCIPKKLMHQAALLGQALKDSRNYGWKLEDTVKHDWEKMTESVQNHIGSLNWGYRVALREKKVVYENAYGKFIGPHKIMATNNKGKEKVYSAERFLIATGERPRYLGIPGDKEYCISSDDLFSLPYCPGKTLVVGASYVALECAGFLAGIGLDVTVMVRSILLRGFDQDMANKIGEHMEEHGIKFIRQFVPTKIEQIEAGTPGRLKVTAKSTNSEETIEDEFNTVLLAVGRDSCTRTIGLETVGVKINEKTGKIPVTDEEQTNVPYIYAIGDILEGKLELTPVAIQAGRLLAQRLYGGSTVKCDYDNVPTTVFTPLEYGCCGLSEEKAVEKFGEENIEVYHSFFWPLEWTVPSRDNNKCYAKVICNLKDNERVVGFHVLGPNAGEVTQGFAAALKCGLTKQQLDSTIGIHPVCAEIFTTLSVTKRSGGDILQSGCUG
T1 sequence (P00390 44-522): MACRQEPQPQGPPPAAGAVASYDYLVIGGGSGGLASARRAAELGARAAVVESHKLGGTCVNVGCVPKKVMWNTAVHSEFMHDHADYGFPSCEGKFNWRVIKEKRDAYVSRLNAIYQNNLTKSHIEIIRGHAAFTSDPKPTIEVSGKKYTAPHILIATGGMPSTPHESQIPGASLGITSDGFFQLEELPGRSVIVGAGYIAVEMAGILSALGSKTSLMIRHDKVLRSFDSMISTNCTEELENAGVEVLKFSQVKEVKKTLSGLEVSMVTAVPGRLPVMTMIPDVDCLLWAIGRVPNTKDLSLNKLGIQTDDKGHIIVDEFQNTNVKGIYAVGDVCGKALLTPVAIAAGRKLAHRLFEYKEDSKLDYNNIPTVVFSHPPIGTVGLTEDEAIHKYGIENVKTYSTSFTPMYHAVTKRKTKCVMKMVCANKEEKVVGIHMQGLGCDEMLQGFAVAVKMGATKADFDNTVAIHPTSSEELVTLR
thioredoxin reductase, sequence (Q16881 151-649): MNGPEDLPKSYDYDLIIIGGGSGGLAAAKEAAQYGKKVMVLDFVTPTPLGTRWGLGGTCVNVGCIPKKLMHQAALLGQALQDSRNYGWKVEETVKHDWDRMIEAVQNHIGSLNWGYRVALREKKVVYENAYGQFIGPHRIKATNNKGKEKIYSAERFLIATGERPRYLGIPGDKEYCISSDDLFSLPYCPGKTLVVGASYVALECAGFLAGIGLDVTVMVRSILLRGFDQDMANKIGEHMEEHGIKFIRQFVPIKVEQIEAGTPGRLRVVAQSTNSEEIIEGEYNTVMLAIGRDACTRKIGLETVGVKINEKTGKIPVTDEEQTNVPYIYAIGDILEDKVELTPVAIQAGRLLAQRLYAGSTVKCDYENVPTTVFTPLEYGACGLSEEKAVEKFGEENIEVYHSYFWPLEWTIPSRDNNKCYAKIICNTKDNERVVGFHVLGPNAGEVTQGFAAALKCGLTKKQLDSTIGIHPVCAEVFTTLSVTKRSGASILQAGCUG

Compound: C=C(COC(=O)c1c(C(F)(F)F)cccc1C(F)(F)F)C(=O)NC(CC(C)C)C(=O)NCC(=O)OCC (racemic) [Compound 3a, 2-((1-((2-ethoxy-2-oxoethyl)amino)-4-methyl-1-oxopentan-2-yl)carbamoyl)allyl 2,6-bis(trifluoromethyl)benzoate]
thioredoxin activity inhibition in comparison to PX-12 [1]: concentrations smaller than compound PX-12; also recorded: three times stronger
IC50 ([2]; 5 min from reaction onset): 37.1 µM
IC50 ([2]; 15 min from reaction onset): > 40 µM
inhibition of thioredoxin reductase activity ([2]; in words): slightly inhibited
thioredoxin reductase activity inhibition in comparison to PX-12 ([2]; in words): about three times less; also recorded: IC50 nearly three times higher
IC50 (glutathione reductase [3]; 5 min from reaction onset): > 100 µM
IC50 (glutathione reductase [3]; 10 min from reaction onset): > 100 µM
inhibition of glutathione reductase activity (glutathione reductase [3]): None
cytostatic/cytotoxic activity in comparison to PX-12 ([4]; EMT6): over two times more active
LD50 of the evaluated compound [4]: 5.3 µM
LD50 of the evaluated compound [5]: 3.2 µM
LD50 of the evaluated compound [6]: 3.2 µM
LD50 of the evaluated compound (B78 (murine melanoma)): 4.3 µM
LD50 of the evaluated compound [7]: 4.6 µM
LD50 of the evaluated compound [8]: 3.3 µM
LD50 of the evaluated compound [9]: 3.8 µM
LD50 of the evaluated compound [10]: 5.1 µM
percentage of dividing cells duplicating their genetic material (S phase) (T24 cells): clearly lower
cytostatic/cytotoxic activity [11]: comparable

IC50 [1]: 2.9 µM
thioredoxin IC50, times lower than for PX-12 ([1]; ratio to PX-12): about 5 times
Compound: C=C(COC(=O)c1c(Cl)cccc1Cl)C(=O)NC(CC(C)C)C(=O)NCC(=O)OCC (racemic) [Compound 3b, 2-((1-((2-ethoxy-2-oxoethyl)amino)-4-methyl-1-oxopentan-2-yl)carbamoyl)allyl 2,6-dichlorobenzoate]
thioredoxin activity inhibition in comparison to PX-12 [1]: concentrations smaller than compound PX-12
cytostatic/cytotoxic activity [11]: strong cytostatic/cytotoxic activity

IC50 ([2]; 5 min from reaction onset): > 40 µM
IC50 ([2]; 15 min from reaction onset): > 40 µM
IC50 (glutathione reductase [3]; 5 min from reaction onset): > 100 µM
IC50 (glutathione reductase [3]; 10 min from reaction onset): > 100 µM
Compound: C=C(COC(=O)c1c(C(F)(F)F)cccc1C(F)(F)F)C(=O)NCc1ccccc1 [Compound 8a, 2-(benzylcarbamoyl)allyl 2,6-bis(trifluoromethyl)benzoate]
cytostatic/cytotoxic activity [11]: strong cytostatic/cytotoxic activity

IC50 [1]: 5.9 µM
selectivity as thioredoxin inhibitor in comparison to PX-12 ([1]; from Tables 1, 2 and 3): considerably more selective
IC50 ([2]; 5 min from reaction onset): > 40 µM
IC50 ([2]; 15 min from reaction onset): > 40 µM
IC50 (glutathione reductase [3]; 5 min from reaction onset): > 100 µM
IC50 (glutathione reductase [3]; 10 min from reaction onset): > 100 µM
inhibition of glutathione reductase activity (glutathione reductase [3]): None
Compound: C=C(COC(=O)c1c(Cl)cccc1Cl)C(=O)NCc1ccccc1 [Compound 8b, 2-(benzylcarbamoyl)allyl 2,6-dichlorobenzoate]
thioredoxin activity inhibition in comparison to PX-12 [1]: concentrations smaller than compound PX-12
cytostatic/cytotoxic activity [11]: strong cytostatic/cytotoxic activity

Compound: C=C(COC(=O)c1c(C(F)(F)F)cccc1C(F)(F)F)C(=O)N[C@H](CC(C)C)C(=O)NCC(=O)OCC [Compound D-3a, (R)-2-((1-((2-ethoxy-2-oxoethyl)amino)-4-methyl-1-oxopentan-2-yl)carbamoyl)allyl 2,6-bis(trifluoromethyl)benzoate]
thioredoxin activity inhibition in comparison to PX-12 [1]: concentrations smaller than compound PX-12
cytostatic/cytotoxic activity [11]: strong cytostatic/cytotoxic activity

Compound: C=C(COC(=O)c1c(C(F)(F)F)cccc1C(F)(F)F)C(=O)N[C@@H](CC(C)C)C(=O)NCC(=O)OCC [Compound L-3a, (S)-2-((1-((2-ethoxy-2-oxoethyl)amino)-4-methyl-1-oxopentan-2-yl)carbamoilo)allyl 2,6-bis(trifluoromethyl)benzoate]
thioredoxin activity inhibition in comparison to PX-12 [1]: concentrations smaller than compound PX-12
cytostatic/cytotoxic activity [11]: strong cytostatic/cytotoxic activity

Compound: CCC(C)SSc1ncc[nH]1 (stereo not drawn) [PX-12, 1-methylpropyl-2-imidazole disulphide, reference compound]
IC50 (glutathione reductase [3]; 5 min from reaction onset): 19.8 µM
IC50 (glutathione reductase [3]; 10 min from reaction onset): 28.6 µM
LD50 of the evaluated compound [4]: 12.7 µM
LD50 of the evaluated compound [5]: 3.8 µM
LD50 of the evaluated compound [6]: 5.4 µM
LD50 of the evaluated compound (B78 (murine melanoma)): 5.3 µM
LD50 of the evaluated compound [7]: 5.9 µM
LD50 of the evaluated compound [8]: 3.7 µM
LD50 of the evaluated compound [9]: 4.9 µM
LD50 of the evaluated compound [10]: 4.5 µM
percentage of dividing cells duplicating their genetic material (S phase) (T24 cells): clearly lower

Compound: CC[P](CC)(CC)=[Au][S]C1OC(OC(C)=O)C(OC(C)=O)C(OC(C)=O)C1OC(C)=O (stereo not drawn) [auranofin]
concentrations inhibiting thioredoxin reductase (thioredoxin reductase): nanomolar concentrations
concentrations inhibiting glutathione reductase (glutathione reductase [12]): micromolar levels

— US9018255B2, “Esters of (acyloxymethyl)acrylamide, a pharmaceutical composition containing them, and their use as inhibitors of the thioredoxin—thioredoxin reductase system” (Instytut Chemii Organicznej Polskiej Akademii Nauk, priority 2010, dated 2015)
